Results reported in ChEMBL document CHEMBL1938371, “Discovery of AZD2932, a new Quinazoline Ether Inhibitor with high affinity for VEGFR-2 and PDGFR tyrosine kinases” (Bioorg Med Chem Lett, 2012).
pIC50: −log10 of the molar value. The source made the active and inactive calls. No cut-off for these calls is given here.

What was measured:
[1] = molecular target: T1, Receptor-type tyrosine-protein kinase FLT3 (Homo sapiens, UniProt P36888); experiment: Inhibition of FLT3 phosphorylation by cell based assay
T1 sequence (P36888 whole entry): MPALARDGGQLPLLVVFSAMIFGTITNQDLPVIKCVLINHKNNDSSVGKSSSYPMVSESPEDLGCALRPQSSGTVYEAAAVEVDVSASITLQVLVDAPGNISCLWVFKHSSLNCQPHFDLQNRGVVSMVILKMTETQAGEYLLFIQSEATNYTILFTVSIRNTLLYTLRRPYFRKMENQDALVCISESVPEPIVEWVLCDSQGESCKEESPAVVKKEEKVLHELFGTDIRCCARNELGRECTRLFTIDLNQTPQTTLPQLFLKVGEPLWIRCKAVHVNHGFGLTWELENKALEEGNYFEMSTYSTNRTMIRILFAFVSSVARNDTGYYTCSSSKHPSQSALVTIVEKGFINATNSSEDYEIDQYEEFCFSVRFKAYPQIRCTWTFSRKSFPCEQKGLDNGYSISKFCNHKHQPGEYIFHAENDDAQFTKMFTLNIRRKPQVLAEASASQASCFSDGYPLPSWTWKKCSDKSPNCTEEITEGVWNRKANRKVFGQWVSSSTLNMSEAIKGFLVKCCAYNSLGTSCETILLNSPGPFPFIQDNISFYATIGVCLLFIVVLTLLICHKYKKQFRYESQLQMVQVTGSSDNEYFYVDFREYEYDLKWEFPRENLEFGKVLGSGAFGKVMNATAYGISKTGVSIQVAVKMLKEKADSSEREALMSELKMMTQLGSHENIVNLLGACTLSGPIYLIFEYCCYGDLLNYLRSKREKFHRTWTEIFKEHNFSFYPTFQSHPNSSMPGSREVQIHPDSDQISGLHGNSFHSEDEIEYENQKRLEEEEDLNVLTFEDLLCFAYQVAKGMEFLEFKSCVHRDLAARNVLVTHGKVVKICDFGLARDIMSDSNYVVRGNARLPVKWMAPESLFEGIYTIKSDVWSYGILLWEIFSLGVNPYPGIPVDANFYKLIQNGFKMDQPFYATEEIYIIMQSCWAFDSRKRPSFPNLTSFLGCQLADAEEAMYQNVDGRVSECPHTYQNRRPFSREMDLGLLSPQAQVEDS

[2] = molecular target: Platelet-derived growth factor receptor alpha (Homo sapiens) (UniProt P16234); experiment: Inhibition of PDGFRalpha phosphorylation by cell based assay
[3] = molecular target: Vascular endothelial growth factor receptor 2 (Homo sapiens) (UniProt P35968); experiment: Inhibition of VEGFR2 phosphorylation by cell based assay
[4] = molecular target: Macrophage colony-stimulating factor 1 receptor (Homo sapiens, UniProt P07333); experiment: Inhibition of CSF1R phosphorylation by cell based assay
[5] = Half life in iv dosed rat; type: ADME, organism-based; conditions: in vivo
[6] = molecular target: Platelet-derived growth factor receptor beta (Homo sapiens, UniProt P09619); experiment: Inhibition of PDGFRbeta phosphorylation by cell based assay
[7] = Oral bioavailability in rat; type: ADME, organism-based; conditions: in vivo
[8] = Chemical stability of the compound at pH 1; type: physicochemical; conditions: buffer
[9] = Clearance in rat; type: ADME, organism-based; conditions: in vivo
Aurora kinase B = Aurora kinase B (Homo sapiens, UniProt Q96GD4); experiment: Inhibition of aurora-B
Mus musculus [10] = experiment: Inhibition of PDGFRalpha phosphorylation in rat C6 cells xenografted in nude mouse at 3 mg/kg, po; type: functional, organism-based; parameters: dose 3 mg/kg; conditions: TDE = time-dependent effect
Mus musculus [11] = experiment: Inhibition of PDGFRalpha phosphorylation in rat C6 cells xenografted in po dosed nude mouse after 6 hrs; type: functional, organism-based
[12] = molecular target: Mast/stem cell growth factor receptor Kit (Homo sapiens) (UniProt P10721); experiment: Inhibition of c-Kit
Chain of Mast/stem cell growth factor receptor Kit (Homo sapiens) (P10721 whole entry): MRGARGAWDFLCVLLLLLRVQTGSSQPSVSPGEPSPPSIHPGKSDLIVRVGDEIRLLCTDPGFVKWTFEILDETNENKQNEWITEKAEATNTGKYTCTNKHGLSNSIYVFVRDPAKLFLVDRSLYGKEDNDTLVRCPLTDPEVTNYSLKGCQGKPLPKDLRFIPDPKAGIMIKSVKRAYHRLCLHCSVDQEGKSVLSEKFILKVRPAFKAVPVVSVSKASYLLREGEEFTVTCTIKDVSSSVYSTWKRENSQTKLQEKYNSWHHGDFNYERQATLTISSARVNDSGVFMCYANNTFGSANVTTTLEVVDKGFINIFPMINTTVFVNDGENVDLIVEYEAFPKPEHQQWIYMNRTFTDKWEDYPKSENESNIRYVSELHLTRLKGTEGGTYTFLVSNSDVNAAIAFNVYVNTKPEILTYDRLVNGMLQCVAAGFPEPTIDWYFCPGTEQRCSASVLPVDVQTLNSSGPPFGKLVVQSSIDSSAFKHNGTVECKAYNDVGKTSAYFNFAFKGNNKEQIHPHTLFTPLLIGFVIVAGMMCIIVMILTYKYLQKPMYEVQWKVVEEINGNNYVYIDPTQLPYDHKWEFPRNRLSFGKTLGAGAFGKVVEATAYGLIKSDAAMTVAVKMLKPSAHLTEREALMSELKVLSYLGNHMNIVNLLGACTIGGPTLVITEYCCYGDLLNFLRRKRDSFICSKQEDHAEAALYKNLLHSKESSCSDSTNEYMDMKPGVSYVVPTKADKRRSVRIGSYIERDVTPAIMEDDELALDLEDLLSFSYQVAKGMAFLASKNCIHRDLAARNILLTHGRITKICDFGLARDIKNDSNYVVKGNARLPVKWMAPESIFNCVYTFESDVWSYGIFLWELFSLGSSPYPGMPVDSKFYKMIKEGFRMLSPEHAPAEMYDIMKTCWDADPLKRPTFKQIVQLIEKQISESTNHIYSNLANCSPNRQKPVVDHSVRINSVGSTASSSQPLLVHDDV

Chain of Macrophage colony-stimulating factor 1 receptor (P07333 whole entry): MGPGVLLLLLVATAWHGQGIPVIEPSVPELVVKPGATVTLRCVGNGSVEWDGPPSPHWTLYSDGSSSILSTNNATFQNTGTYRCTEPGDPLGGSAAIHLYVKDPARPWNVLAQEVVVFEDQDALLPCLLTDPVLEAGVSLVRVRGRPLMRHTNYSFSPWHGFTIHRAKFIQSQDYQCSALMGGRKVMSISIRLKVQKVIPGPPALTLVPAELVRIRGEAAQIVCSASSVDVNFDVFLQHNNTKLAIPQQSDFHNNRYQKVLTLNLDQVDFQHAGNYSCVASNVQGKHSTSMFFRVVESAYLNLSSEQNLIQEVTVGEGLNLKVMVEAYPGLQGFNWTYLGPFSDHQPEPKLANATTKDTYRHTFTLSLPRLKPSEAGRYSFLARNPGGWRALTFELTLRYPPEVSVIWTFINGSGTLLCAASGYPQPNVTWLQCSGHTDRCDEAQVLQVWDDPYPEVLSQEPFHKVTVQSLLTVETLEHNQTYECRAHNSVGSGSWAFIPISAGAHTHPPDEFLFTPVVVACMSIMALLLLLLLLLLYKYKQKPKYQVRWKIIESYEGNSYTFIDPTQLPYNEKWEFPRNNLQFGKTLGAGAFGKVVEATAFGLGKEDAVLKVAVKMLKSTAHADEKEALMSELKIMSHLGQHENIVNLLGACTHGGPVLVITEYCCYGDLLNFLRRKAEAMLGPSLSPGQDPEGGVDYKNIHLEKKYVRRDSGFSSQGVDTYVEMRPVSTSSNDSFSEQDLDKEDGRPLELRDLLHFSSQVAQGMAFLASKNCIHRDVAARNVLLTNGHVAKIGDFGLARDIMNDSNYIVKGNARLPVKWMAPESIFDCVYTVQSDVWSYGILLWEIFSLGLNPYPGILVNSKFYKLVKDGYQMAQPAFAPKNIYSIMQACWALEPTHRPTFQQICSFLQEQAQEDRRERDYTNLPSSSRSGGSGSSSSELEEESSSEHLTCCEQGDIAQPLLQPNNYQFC
Chain of Platelet-derived growth factor receptor alpha (Homo sapiens) (P16234 whole entry): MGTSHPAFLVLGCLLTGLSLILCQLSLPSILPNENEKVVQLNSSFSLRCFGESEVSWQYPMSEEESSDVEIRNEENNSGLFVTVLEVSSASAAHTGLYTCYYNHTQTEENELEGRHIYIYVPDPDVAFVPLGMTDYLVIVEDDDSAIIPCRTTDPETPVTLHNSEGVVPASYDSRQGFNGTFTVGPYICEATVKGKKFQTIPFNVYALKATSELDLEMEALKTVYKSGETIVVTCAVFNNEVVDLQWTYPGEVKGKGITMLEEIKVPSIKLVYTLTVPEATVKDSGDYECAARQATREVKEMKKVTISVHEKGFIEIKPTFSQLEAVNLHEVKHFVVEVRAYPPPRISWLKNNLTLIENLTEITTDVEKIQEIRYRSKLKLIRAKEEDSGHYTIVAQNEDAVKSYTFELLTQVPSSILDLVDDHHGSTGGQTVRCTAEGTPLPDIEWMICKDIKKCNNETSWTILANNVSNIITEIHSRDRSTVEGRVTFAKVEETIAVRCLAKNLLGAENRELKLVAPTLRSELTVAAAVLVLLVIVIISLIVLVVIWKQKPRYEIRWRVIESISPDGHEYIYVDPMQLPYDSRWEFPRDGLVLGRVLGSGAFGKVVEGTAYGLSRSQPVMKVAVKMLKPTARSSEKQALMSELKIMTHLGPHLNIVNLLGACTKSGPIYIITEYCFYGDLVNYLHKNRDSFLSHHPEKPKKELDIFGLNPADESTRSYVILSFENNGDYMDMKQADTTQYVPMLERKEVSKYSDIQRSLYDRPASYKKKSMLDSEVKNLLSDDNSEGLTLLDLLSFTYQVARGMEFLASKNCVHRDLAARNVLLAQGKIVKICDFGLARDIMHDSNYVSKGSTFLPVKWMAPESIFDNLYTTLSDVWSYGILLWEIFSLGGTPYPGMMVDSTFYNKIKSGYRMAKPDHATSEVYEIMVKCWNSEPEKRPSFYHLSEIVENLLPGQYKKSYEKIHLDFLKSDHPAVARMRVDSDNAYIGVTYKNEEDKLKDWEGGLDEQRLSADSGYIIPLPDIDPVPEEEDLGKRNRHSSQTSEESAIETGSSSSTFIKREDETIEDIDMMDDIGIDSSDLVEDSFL
Chain of Platelet-derived growth factor receptor beta (P09619 whole entry): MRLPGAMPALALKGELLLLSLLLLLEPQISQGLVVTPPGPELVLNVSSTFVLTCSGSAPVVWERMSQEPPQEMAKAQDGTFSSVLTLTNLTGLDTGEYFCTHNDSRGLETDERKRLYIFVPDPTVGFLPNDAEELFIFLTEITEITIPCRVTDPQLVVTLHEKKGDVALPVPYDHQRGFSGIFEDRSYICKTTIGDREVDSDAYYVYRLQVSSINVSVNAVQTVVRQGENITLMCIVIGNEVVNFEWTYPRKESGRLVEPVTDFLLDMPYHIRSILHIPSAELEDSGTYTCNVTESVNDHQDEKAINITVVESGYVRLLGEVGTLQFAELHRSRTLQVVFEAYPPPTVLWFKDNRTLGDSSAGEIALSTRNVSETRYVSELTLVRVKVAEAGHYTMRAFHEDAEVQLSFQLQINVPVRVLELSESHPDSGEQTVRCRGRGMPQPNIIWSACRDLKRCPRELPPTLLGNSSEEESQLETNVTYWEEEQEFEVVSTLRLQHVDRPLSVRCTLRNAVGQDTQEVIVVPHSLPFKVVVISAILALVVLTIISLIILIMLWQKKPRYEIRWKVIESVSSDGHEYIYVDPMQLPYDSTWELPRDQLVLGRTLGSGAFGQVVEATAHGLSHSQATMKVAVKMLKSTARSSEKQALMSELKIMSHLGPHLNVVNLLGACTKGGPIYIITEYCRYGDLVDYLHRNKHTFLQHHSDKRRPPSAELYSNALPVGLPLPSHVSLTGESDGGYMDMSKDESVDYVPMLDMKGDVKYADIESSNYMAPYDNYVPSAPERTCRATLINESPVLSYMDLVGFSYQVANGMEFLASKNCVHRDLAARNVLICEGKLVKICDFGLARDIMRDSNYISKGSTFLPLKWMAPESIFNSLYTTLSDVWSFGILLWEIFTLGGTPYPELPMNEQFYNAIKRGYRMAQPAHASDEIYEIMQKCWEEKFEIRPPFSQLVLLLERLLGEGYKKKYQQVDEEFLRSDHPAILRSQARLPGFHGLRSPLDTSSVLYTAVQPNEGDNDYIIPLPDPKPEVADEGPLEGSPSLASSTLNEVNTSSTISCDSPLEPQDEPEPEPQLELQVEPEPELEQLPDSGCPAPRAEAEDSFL
Chain of Aurora kinase B (Q96GD4 whole entry): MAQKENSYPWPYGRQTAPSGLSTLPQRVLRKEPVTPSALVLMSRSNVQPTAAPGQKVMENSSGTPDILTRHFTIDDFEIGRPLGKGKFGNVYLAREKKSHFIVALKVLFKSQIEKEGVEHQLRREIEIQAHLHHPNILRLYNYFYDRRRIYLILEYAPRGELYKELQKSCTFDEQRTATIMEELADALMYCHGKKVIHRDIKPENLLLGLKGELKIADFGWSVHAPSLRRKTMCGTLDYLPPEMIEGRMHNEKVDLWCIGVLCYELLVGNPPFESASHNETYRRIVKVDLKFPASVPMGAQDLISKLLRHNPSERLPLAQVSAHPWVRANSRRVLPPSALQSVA

pIC50 [1]	inhibition [2]	pIC50 [3]	pIC50 [4]	half-life [5]	pIC50 [6]	bioavailability [7]	Stability [8]	clearance [9]	pIC50 (Aurora kinase B)	INH [2]	inhibition [12]	Structure (SMILES)	inhibition (Mus musculus [10])	inhibition (Mus musculus [11])
8.00	Active	7.51	6.40	24 min	8.52	< 20%	0.1 days	75 mL/min/kg				COc1cccc(NC(=O)Cn2cc(Oc3ncnc4cc(OC)c(OCCN5CCCCC5)cc34)cn2)c1		
8.40	Active	7.00	6.22		8.22	< 20%	0.1 days		< 8.00			COc1cc2ncnc(Nc3cnn(CC(=O)Nc4ccc(N(C)C)cc4)c3)c2cc1OC		
< 6.10	Active	< 5.00	< 6.00		< 5.70							COc1cc2ncnc(Oc3ccc(CC(=O)Nc4cn[nH]c4)cc3)c2cc1OC		
8.52	Active	> 8.30	7.05		8.70	< 20%	0.1 days					COCCOc1cc2c(Oc3cnn(CC(=O)Nc4cccc(OC)c4)c3)ncnc2cc1OC		
7.70	Active	6.89	6.52		7.70							COc1cccc(COc2ccc(Oc3ncnc4cc(OC)c(OC)cc34)cc2)c1		
< 6.00	Active	5.21	< 6.00		6.52							COc1cccc(C(=O)NCc2ccc(Oc3ncnc4cc(OC)c(OC)cc34)cc2)c1		
8.15	Active	8.10	6.52		9.05							COc1cccc(NC(=O)Cc2ccc(Oc3ncnc4cc(OC)c(OC)cc34)cc2)c1		
8.00	Active	7.54	< 6.10		8.52							CCn1cc(NC(=O)Cc2ccc(Oc3ncnc4cc(OC)c(OC)cc34)cc2)cn1		
										2 nM		COc1cc2ncnc(Oc3ccc(CC(=O)Nc4cnn(C(C)C)c4)cc3)c2cc1OC	tde	Dose-dependent effect
8.40	Active	7.29	< 6.00		8.00	< 20%	0.1 days		> 9.70			COc1cc2ncnc(Nc3cnn(CC(=O)Nc4cccc(F)c4)c3)c2cc1OC		
7.70	Active	7.24	7.40		8.70	< 20%	0.1 days					COc1cccc(NC(=O)Cn2cc(Oc3ccnc4cc(OC)c(OC)cc34)cn2)c1		
< 6.00	Active	< 5.00	< 6.00		< 6.00							COc1cccc(S(=O)(=O)NCc2ccc(Oc3ncnc4cc(OC)c(OC)cc34)cc2)c1		
< 6.40	Active	5.51	< 6.00		6.15							COc1cccc(CNC(=O)c2ccc(Oc3ncnc4cc(OC)c(OC)cc34)cc2)c1		
8.70	Active	9.70	8.10		9.52	< 20%	0.1 days					COCCOc1cc2ncnc(Oc3cnn(CC(=O)Nc4cccc(OC)c4)c3)c2cc1OC		
< 6.00	Active	6.00	< 6.00		6.52							COc1cccc(NC(=O)Cc2cccc(Oc3ncnc4cc(OC)c(OC)cc34)c2)c1		
8.40	Active	7.92	7.40		9.40							CCn1cc(NC(=O)Cc2ccc(Oc3ccnc4cc(OC)c(OC)cc34)cc2)cn1		

pIC50 [1]	inhibition [2]	pIC50 [3]	pIC50 [4]	half-life [5]	pIC50 [6]	bioavailability [7]	Stability [8]	clearance [9]	pIC50 (Aurora kinase B)	INH [2]	inhibition [12]	Structure (SMILES)	inhibition (Mus musculus [10])	inhibition (Mus musculus [11])
< 7.70	Active	7.60	< 6.05		8.00	< 20%	0.1 days		< 8.00			COc1cccc(NC(=O)Cn2cc(Nc3ncnc4cc(OC)c(OC)cc34)cn2)c1		
< 7.22	Active	6.76	< 6.00		8.00							COc1cccc(NC(=O)Cc2ccc(Nc3ncnc4cc(OC)c(OC)cc34)cc2)c1		
7.70	Active	6.76	< 6.00		8.00							CCn1ccc(NC(=O)Cc2ccc(Oc3ncnc4cc(OC)c(OC)cc34)cc2)n1		
7.40	Active	6.55	7.30		8.70	< 20%	0.1 days					COc1cccc(NC(=O)Cn2cc(Oc3ccnc4cc(OC)c(C#N)cc34)cn2)c1		
8.40	Active	7.46	6.70		8.40	< 20%	0.1 days					CCn1cc(NC(=O)Cn2cc(Oc3ncnc4cc(OC)c(OC)cc34)cn2)cn1		
8.10	Active	6.75	< 6.00		8.05							COc1cccc(NC(=O)NCc2ccc(Oc3ncnc4cc(OC)c(OC)cc34)cc2)c1		
8.30	Active	7.52	7.00		8.70	< 20%	0.1 days					COc1cccc(NC(=O)Cn2cc(Oc3ncnc4cc(OC)cc(OC)c34)cn2)c1		
8.30	Active	> 8.30	< 6.22		8.40							CCc1cc(NC(=O)Cc2ccc(Oc3ncnc4cc(OC)c(OC)cc34)cc2)n[nH]1		
< 6.00	Active	< 5.00	< 6.00		< 6.00						inactive	CCn1cc(NC(=O)Cc2cc(Oc3ccnc4cc(OC)c(OC)cc34)n[nH]2)cn1		
8.52	Active	7.41	7.70		8.52	< 20%	0.1 days					COc1cc2ncnc(Oc3cnn(CC(=O)Nc4ccc(N(C)C)cn4)c3)c2cc1OC		
8.70	Active	9.40	8.00		9.10	< 20%	0.1 days					COc1cccc(NC(=O)Cn2cc(Oc3ncnc4cc(OC)c(OC)cc34)cn2)c1		
7.10	Active	6.18	< 6.00		7.40							COc1cc2ncnc(Oc3ccc(CC(=O)Nc4cnn(C)c4)cc3)c2cc1OC		
8.00	Active	6.68	7.52		8.40							COc1cccc(CC(=O)Nc2ccc(Oc3ncnc4cc(OC)c(OC)cc34)cc2)c1		
8.30	Active	8.15	7.52		9.00	< 20%	0.1 days					COc1cccc(NC(=O)Cn2cc(Oc3ncnc4cc(OCCN5CCCC5)c(OC)cc34)cn2)c1		
8.00	Active	6.34	< 6.00		< 6.70	< 20%	0.1 days					COc1cc2ncnc(Nc3cnn(CC(=O)Nc4ccc(N(C)C)cn4)c3)c2cc1OC		
8.05	Active	7.66	6.22		8.30							COc1cc2ncnc(Oc3ccc(CC(=O)Nc4ccc(N(C)C)cn4)cc3)c2cc1OC		
